These results are taken from patent US11208412B2 (DAEGU-GYEONGBUK MEDICAL INNOVATION FOUNDATION, priority 2017, dated 2021).

Common to all, as to experiment: Kinase selectivity, DiscoverX scanMAX Kinase assay panel (% control)
Assay type in all cases: binding

The target of assay [1] is T1, kinases of the scanMAX Kinase assay panel (Homo sapiens, UniProt O43318).
T1 construct: purchased DiscoverX Co. (contract measurement) scanMAX Kinase assay panel
T1 sequence (O43318 1-606): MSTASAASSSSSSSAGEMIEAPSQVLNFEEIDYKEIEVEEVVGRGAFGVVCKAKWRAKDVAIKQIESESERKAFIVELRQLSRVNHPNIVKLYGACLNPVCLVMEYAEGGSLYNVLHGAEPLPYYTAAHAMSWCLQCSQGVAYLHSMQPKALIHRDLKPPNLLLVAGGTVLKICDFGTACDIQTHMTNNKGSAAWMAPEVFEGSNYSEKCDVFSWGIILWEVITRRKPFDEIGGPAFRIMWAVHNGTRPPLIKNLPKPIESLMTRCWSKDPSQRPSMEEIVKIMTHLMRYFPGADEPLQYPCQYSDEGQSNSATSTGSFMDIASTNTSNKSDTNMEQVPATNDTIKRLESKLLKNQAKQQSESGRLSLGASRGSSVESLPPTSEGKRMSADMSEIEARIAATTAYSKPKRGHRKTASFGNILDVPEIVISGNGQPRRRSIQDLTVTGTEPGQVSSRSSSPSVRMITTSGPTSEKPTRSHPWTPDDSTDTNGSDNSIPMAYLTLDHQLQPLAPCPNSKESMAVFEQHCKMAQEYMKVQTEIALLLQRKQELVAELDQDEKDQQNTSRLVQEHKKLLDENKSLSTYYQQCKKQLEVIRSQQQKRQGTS
The conditions noted are these: kinase TAK1; 1 uM in DMSO. The method in brief:
(§1)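 Single-point screen, 1 uM cpd in DMSO. % ctrl = (cpd − pos ctrl)/(neg ctrl − pos ctrl)×100; pos ctrl = 0%, DMSO neg ctrl = 100%. Hit cutoff <35%.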

Assay [2] addresses T2, kinases of the scanMAX Kinase assay panel (Homo sapiens, UniProt Q9UIK4).
T2 construct: purchased DiscoverX Co. (contract measurement) scanMAX Kinase assay panel
The conditions noted are these: DAPK2; 1 uM. The method in brief:
as §1

In assay [3] the target is T3, kinases of the scanMAX Kinase assay panel (Mycobacterium tuberculosis, UniProt P9WI81).
T3 construct: purchased DiscoverX Co. (contract measurement) scanMAX Kinase assay panel
The conditions noted are these: read-out: % control. The method in brief: as §1

Assay [4] addresses T4, kinases of the scanMAX Kinase assay panel (Homo sapiens, UniProt Q9Y463).
T4 construct: purchased DiscoverX Co. (contract measurement) scanMAX Kinase assay panel
To be noted: DYRK1B; 1 uM. The method in brief: as §1

In assay [5] the target is T5, kinases of the scanMAX Kinase assay panel (Homo sapiens, UniProt P42336, M1043I).
T5 construct: purchased DiscoverX Co. (contract measurement) scanMAX Kinase assay panel
To be noted: PIK3CA(M1043I); 1 uM. The method in brief: as §1

The target of assay [6] is T6, kinases of the scanMAX Kinase assay panel (Homo sapiens, UniProt Q6P3R8).
T6 construct: purchased DiscoverX Co. (contract measurement) scanMAX Kinase assay panel
T6 sequence (Q6P3R8 1-708): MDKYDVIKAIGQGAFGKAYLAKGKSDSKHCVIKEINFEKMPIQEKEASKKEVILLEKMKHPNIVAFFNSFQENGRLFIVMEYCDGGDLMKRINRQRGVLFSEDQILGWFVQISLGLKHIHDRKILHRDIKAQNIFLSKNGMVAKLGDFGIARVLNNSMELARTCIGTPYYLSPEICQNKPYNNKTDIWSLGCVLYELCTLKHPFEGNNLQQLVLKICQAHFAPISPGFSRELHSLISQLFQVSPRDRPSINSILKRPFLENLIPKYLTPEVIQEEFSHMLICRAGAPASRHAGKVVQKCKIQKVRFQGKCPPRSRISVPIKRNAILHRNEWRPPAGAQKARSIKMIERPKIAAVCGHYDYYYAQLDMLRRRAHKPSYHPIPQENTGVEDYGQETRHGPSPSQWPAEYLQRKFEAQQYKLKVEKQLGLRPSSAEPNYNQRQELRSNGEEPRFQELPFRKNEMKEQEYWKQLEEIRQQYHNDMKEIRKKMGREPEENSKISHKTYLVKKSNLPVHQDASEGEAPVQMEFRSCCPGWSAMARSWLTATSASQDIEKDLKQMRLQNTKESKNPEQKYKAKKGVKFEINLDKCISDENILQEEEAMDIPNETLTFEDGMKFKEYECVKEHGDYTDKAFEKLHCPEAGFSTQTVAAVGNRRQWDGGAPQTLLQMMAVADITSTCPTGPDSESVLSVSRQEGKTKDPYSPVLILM
The conditions noted are these: NEK5; 1 uM. The method in brief: as §1

The target of assay [7] is T7, kinases of the scanMAX Kinase assay panel (Homo sapiens, UniProt Q16512).
T7 construct: purchased DiscoverX Co. (contract measurement) scanMAX Kinase assay panel
The conditions noted are these: PKN1; 1 uM. The method in brief:
as §1

The target of assay [8] is T8, kinases of the scanMAX Kinase assay panel (Homo sapiens, UniProt P15056, V600E).
T8 construct: purchased DiscoverX Co. (contract measurement) scanMAX Kinase assay panel
The conditions noted are these: BRAF(V600E); 1 uM. The method in brief: as §1

Assay [9] has as its target T9, kinases of the scanMAX Kinase assay panel (Homo sapiens, UniProt Q04771).
T9 construct: purchased DiscoverX Co. (contract measurement) scanMAX Kinase assay panel
T9 sequence (Q04771 21-509): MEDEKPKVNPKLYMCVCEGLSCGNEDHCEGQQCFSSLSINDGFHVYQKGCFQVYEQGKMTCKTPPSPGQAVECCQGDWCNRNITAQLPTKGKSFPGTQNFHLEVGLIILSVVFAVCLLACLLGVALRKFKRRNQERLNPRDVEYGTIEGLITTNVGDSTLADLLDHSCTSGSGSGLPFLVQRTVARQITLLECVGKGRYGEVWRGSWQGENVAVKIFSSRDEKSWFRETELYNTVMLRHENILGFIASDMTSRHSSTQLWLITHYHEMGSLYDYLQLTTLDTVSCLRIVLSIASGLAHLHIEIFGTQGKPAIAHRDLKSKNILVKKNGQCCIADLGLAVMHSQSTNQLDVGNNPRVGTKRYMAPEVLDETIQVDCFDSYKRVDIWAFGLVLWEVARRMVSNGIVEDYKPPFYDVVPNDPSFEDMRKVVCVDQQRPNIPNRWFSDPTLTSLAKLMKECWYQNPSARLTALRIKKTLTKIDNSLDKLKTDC
To be noted: ACVR1; 1 uM. The method in brief: as §1

In assay [10] the target is T10, kinases of the scanMAX Kinase assay panel (Homo sapiens, UniProt P53350).
T10 construct: purchased DiscoverX Co. (contract measurement) scanMAX Kinase assay panel
The conditions noted are these: PLK1; 1 uM. The method in brief: as §1

Assay [11] addresses T11, kinases of the scanMAX Kinase assay panel (Homo sapiens, UniProt Q99558).
T11 construct: purchased DiscoverX Co. (contract measurement) scanMAX Kinase assay panel
To be noted: NIK; 1 uM. The method in brief: as §1

T2 sequence (Q9UIK4 whole entry): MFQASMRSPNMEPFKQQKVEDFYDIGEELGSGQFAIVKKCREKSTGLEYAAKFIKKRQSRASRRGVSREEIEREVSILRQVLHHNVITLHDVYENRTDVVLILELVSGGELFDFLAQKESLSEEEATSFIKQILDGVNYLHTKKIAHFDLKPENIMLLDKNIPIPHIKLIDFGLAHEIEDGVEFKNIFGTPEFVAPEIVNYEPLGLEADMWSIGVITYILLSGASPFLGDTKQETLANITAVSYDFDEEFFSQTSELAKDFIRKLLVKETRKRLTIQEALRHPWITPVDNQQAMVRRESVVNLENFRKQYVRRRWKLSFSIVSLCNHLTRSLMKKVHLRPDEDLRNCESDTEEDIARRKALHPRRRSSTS
T8 sequence (P15056 whole entry V600E): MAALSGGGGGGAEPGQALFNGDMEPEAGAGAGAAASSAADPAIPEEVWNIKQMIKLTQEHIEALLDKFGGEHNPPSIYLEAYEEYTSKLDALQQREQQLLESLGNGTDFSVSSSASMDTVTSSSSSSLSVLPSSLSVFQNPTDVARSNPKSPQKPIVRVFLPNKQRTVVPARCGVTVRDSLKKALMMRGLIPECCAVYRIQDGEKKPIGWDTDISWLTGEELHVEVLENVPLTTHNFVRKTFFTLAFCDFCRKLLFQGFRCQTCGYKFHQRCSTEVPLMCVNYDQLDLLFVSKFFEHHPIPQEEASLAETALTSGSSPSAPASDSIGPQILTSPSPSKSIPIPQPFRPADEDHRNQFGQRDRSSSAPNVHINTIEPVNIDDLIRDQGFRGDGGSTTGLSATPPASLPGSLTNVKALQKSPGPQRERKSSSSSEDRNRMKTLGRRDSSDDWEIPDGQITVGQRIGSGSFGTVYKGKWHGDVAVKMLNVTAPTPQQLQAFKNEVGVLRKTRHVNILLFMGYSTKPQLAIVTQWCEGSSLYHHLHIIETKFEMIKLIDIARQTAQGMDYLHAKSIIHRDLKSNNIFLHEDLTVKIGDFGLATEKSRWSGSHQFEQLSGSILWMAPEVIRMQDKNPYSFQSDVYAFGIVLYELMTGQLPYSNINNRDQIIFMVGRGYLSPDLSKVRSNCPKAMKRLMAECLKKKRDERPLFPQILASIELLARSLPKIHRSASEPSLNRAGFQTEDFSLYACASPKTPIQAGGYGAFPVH
T7 sequence (Q16512 whole entry): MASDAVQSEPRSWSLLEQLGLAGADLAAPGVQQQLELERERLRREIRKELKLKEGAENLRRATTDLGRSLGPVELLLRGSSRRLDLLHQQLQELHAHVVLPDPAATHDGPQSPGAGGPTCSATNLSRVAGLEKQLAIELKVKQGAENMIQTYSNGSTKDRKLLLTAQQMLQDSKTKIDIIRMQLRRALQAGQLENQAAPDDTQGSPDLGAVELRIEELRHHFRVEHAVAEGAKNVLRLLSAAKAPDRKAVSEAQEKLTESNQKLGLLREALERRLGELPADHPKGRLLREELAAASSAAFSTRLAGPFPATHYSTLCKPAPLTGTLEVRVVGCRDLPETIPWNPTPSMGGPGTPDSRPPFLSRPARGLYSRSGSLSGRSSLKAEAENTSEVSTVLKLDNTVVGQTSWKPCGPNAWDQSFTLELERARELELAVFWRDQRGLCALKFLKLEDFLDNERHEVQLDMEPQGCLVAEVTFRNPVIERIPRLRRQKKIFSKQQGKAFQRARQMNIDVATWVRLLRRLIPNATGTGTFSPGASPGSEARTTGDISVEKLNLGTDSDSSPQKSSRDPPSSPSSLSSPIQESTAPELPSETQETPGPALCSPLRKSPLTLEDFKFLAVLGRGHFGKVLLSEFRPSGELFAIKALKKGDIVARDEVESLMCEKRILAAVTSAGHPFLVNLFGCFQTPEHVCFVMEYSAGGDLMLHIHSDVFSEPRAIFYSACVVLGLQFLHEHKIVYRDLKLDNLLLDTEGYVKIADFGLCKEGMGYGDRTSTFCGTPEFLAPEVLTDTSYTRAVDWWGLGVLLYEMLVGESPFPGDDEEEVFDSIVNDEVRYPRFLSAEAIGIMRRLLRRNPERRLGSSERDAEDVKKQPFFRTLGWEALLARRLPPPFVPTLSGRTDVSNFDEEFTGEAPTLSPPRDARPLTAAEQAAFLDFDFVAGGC
T4 sequence (Q9Y463 whole entry): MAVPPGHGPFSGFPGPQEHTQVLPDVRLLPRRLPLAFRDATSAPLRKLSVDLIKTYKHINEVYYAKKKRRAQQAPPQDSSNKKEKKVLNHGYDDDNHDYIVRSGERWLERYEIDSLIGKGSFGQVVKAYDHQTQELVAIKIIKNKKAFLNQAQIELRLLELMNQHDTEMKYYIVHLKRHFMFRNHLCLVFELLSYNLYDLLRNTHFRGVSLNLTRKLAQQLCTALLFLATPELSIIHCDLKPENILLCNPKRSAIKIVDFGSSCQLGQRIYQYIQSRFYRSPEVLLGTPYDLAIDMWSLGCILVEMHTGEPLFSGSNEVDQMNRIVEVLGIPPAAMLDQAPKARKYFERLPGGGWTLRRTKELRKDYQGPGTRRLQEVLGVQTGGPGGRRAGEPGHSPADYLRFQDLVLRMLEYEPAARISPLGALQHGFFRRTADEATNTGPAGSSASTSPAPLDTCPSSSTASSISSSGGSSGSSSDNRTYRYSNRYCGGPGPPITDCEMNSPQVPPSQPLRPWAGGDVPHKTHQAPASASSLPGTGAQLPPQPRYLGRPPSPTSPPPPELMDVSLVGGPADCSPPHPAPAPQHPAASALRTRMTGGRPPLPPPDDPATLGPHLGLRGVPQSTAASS
T5 sequence (P42336 whole entry M1043I): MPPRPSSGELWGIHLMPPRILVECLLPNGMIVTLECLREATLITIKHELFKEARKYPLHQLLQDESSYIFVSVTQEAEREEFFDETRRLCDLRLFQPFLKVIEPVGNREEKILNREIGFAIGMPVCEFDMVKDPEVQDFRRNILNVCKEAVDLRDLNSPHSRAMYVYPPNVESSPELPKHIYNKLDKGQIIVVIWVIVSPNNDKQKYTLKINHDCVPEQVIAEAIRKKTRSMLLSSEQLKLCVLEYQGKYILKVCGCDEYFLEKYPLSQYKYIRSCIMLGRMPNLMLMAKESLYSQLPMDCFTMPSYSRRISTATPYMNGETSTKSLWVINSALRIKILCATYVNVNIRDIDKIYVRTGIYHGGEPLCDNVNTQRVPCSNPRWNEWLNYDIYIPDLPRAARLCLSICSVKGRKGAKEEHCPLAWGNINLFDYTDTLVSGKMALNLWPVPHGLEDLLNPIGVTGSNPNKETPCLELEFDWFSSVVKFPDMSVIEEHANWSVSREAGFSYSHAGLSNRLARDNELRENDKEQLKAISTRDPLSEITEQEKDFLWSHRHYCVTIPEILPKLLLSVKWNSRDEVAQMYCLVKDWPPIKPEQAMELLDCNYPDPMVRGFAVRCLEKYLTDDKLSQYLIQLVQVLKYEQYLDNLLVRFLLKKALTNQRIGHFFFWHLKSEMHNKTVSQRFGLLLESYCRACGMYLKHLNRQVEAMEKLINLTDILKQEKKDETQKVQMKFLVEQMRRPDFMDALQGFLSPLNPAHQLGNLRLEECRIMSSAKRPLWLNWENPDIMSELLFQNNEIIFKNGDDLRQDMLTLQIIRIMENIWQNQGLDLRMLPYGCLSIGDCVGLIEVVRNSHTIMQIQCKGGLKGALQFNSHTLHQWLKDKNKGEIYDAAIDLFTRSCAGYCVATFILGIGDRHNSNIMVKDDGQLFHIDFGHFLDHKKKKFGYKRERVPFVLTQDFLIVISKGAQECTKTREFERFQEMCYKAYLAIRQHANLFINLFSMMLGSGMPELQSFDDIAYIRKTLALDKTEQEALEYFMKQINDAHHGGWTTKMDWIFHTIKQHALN
T3 sequence (P9WI81 whole entry): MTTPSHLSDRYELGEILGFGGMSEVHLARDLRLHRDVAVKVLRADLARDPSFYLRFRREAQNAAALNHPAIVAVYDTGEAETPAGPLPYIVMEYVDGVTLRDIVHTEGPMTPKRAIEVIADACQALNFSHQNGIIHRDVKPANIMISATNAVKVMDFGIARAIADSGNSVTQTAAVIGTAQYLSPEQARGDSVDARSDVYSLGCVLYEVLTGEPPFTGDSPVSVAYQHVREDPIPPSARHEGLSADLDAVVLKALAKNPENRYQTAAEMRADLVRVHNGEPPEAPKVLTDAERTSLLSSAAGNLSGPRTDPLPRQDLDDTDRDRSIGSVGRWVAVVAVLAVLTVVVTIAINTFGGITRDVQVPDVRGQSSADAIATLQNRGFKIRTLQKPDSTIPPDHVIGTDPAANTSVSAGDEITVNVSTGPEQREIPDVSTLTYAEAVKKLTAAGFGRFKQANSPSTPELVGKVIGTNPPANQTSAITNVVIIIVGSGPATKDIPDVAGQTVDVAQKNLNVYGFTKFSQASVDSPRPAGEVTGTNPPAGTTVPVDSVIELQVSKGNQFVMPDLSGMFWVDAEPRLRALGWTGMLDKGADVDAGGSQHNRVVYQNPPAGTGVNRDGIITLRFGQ
T10 sequence (P53350 whole entry): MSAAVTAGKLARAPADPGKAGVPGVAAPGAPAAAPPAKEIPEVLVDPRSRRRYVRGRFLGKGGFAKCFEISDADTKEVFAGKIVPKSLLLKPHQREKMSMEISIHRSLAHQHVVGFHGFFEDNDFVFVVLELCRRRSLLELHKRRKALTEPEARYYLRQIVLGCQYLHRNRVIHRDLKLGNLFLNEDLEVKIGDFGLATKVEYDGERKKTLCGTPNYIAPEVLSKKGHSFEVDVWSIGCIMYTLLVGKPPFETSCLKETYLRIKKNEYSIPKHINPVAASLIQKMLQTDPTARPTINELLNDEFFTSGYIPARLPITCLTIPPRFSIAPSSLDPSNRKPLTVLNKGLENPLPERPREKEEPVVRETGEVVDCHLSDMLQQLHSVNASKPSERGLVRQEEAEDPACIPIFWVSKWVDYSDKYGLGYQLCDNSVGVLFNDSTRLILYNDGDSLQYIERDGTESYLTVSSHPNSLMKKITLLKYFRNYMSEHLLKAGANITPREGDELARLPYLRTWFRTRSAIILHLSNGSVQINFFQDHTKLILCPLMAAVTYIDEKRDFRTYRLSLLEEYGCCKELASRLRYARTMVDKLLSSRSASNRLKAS

On to `CC1(Nc2nc(Nc3cnn([C@H]4CCN(C5COC5)C[C@@H]4F)c3Cl)nc3[nH]cc(C#N)c23)CC1` [Example 52, 2-((5-chloro-1-((3S,4S)-3-fluoro-1-(oxetane-3-yl)piperidine-4-yl)-1H-pyrazole-4-yl)amino)((1-methylcyclopropyl)amino)-7H-pyrrolo[2,3-d]pyrimidine-5-carbonitrile], for which the remaining binding at 1 µM in assay [1] was determined as 0.05%; in [2], 12%; in [3], 1.1%; in assay [4], 0.55%; in assay [5], 37%; in assay [6], 99%. Besides, the remaining binding at 1 µM is 67% in assay [7]; 100% in assay [8]; 73% in assay [9]; 100% in assay [10]; 7.4% in [11].

Take `CCNc1nc(Nc2ccc(C(=O)N3CCC(N4CCOCC4)CC3)cc2OC)nc2[nH]cc(C(F)(F)F)c12` [Example 104, (4-((4-(ethylamino)-5-(trifluoromethyl)-7H-pyrrolo[2,3-d]pyrimidine-2-yl)amino)-3-methoxyphenyl)(4-morpholinopiperidine-1-yl)methanone]: the remaining binding at 1 µM in assay [1] was 100%; in assay [2], 35%; in assay [3] it was 83%; in assay [4], 0%; in assay [5] it was 84%; in assay [6], 95%. The remaining binding at 1 µM came to 95% in assay [7]; 100% in [8]; 100% in assay [9]; 65% in assay [10]; 16% in [11].

Take `CNc1nc(Nc2ccc(C(=O)N3CCOCC3)cc2OC)nc2[nH]cc(C#N)c12` [Example 1, 2-((2-methoxy-4-(morpholine-4-carbonyl)phenyl)amino)-4-(methylamino)-7H-pyrrolo[2,3-d]pyrimidine-5-carbonitrile]: the remaining binding at 1 µM in assay [1] worked out at 52%; in [2], 11%; in [3], 90%; in assay [4] it was 13%; in assay [5], 94%; in [6], 98%. Further, the remaining binding at 1 µM amounted to 100% in assay [7]; 95% in assay [8]; 97% in assay [9]; 14% in [10]; 3.7% in assay [11].
